# Measured values as given in publication PMC2994747, “Molecular Characterization of c-Abl/c-Src Kinase Inhibitors Targeted against Murine Tumour Progenitor Cells that Express Stem Cell Markers” (PLoS ONE, 2010).
# Read-outs that look alike come from different tables or passages of the source.
# Experiments:
# GammaD12 [1] = assay: MTS cell viability assay; type: cell-based, mouse; conditions: MTS
# Description: (§1) Three human and eleven murine cancer cell lines were used. The human NSCLC cell line A549 (ACC 107) and the human colorectal carcinoma cell line CaCo2 (ACC 169) were obtained from Deutsche Sammlung von Mikroorganismen und Zellkulturen (DSMZ, Braunschweig, Germany). The human hepatocellular carcinoma cell line HepG2 (HB-8065) was obtained from American Type Culture Collection (Manassas, VA, USA). The 11 murine NSCLC cell lines were established as described recently. Cells were grown in monolayer cultures in DMEM containing 10% foetal calf serum, 4 mmol/l L-glutamine and 2% Penicillin/Streptomycin at 37°C in a humidified atmosphere of 95% air and 5% CO2.
# (§2) Cell culture viability was monitored by CellTiter96® AQueous One Solution Cell Proliferation Assay (Promega GmbH, Mannheim, Germany). The cells were seeded in triplicates in 96-well microtitre plates and treated with the dual kinase inhibitors or vehicle (0.2% DMSO). After 24 h or 96 h of treatment the MTS tetrazolium reagent was added to the cells and incubated for 1 h. Absorbance at 490 nm was assayed with a Victor3 Wallac 1420 Multilabel counter (PerkinElmer, Waltham, MA, USA).
# BetaD5 [2] = assay: MTS cell viability assay; type: cell-based, mouse
# Description: as §1, §2
# GammaA3 [3] = assay: MTS cell viability assay; type: cell-based, mouse
# Description: as §1, §2
# A2C12 [4] = assay: MTS cell viability assay; type: cell-based, mouse
# Description: as §1, §2
# c-Abl = biological target: T1, c-Abl (Homo sapiens, UniProt P00519); assay: Abl filter-binding kinase assay (Abtide, [γ-32P]ATP); type: biochemical; conditions: isolated Abl; calculated from ID50, ATP-competitive; E0 0.005, S0 0.012 µM
# T1 construct: His tag; purchased Upstate (Lake Placid, NY, USA)
# T1 sequence (P00519 whole entry): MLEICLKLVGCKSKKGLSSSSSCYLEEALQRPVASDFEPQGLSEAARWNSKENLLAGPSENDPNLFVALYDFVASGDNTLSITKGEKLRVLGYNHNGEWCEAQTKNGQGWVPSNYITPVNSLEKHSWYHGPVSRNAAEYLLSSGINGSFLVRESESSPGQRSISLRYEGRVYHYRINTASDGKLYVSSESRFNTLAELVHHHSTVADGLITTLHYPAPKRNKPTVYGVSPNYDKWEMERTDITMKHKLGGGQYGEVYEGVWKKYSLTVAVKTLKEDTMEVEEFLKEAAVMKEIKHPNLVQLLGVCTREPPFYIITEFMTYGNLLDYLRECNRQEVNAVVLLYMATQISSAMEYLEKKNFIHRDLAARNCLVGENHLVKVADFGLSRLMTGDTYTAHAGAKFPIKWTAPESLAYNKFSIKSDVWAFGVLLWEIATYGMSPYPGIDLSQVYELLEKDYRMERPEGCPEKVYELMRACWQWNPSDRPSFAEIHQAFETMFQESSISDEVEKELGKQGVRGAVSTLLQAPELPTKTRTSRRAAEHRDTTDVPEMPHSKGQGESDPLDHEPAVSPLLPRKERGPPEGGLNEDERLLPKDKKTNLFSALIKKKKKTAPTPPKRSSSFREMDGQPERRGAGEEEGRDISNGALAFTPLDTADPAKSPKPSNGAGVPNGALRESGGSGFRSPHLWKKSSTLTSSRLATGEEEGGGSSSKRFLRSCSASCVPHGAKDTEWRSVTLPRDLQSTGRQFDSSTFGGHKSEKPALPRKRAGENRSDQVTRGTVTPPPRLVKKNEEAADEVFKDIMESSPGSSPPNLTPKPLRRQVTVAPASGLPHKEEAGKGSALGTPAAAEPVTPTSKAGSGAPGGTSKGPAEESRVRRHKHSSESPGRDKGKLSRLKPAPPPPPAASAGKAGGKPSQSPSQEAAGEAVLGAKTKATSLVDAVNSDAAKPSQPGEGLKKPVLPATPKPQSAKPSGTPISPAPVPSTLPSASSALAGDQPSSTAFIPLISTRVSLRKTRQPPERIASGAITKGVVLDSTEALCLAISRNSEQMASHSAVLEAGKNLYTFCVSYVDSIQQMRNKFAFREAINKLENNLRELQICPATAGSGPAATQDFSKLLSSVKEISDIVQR
# Description: (§3) Baculovirus-produced recombinant purified his-tagged active against human Src and Abl were purchased from Upstate (Lake Placid, NY, USA).
# (§4) Src activity was measured in a filter-binding assay using the Src Assay Kit (Upstate, Lake Placid, NY, USA), according to the manufacturer's protocol, using the specific Src peptide substrate [[…]] in the presence of 0.125 pmol of Src and 0.160 pmol of [γ-^32P]ATP. Abl activity was measured in a filter-binding assay using an Abl specific peptide substrate (Abtide, Upstate). Reaction conditions were (in a final volume of 10 µl): 25 mM Tris-HCl pH 7.5, 1 mM DTT, 0.012 µM [γ-^32P]ATP, 0.022 µM c-Abl. Reactions were incubated 10 min at 30°C.The samples (9 µl) were spotted on paper cellulose filters which were washed according to the manufacturer's protocol. Filter-bound radioactivity was measured by liquid scintillation with a Microbeta-Trilux apparatus (PerkinElmer, Waltham, MA, USA).
# (§5) The ID50 were converted to Ki according to a competitive mechanism with respect to the substrate ATP. […] Since (i) the ATP concentration was limiting, i.e., [ATP], Km(ATP), and (ii) the enzyme concentration was not negligible with respect to the ATP concentration, the classical Cheng-Prusoff relationship was not applicable. Consequently, Ki values were calculated according to [drawing 3] (2) where S0 is the concentration of the competing substrate (ATP) and E0 is the concentration of the enzyme. Each experiment was done in triplicate and mean values were used for the interpolation. Curve fitting was performed with the program GraphPad Prism.
# CaCo2 [5] = assay: MTS cell viability assay; type: cell-based, human
# Description: as §1, §2
# HepG2 [6] = assay: MTS cell viability assay; type: cell-based, human
# Description: as §1, §2
# A549 [7] = assay: MTS cell viability assay; type: cell-based, human
# Description: as §1, §2
# CaCo2 [8] = assay: Cell cycle analysis by flow cytometry; type: cell-based, human; conditions: IC50 concentration, 96 h
# Description: (§6) CycleTEST™ PLUS DNA Reagent Kit (Becton Dickinson GmbH, Heidelberg, Germany) for cell cycle analysis was used, according to the instructions of the manufacturer. Briefly, the cells were harvested with trypsin, washed with PBS, and resuspended in CycleTEST Buffer. The cells were centrifuged and resuspended in solution A. After incubation for 10 min at room temperature, solution B was added and incubated. After adding solution C, the samples were incubated at 4°C protected from light. The samples were stored on ice and protected from light until analysis by FACScan flow cytometer (Becton Dickinson GmbH, Heidelberg, Germany).
# A549 [9] = assay: Cell cycle analysis by flow cytometry; type: cell-based, human; conditions: IC50 concentration, 96 h
# Description: as §6
# GammaD12 [10] = assay: Cell cycle analysis by flow cytometry; type: cell-based, mouse; conditions: IC50 concentration, 96 h
# Description: as §6
# GammaA3 [11] = assay: Cell cycle analysis by flow cytometry; type: cell-based, mouse; conditions: IC50 concentration, 96 h
# Description: as §6
# A2C12 [12] = assay: Cell cycle analysis by flow cytometry; type: cell-based, mouse; conditions: IC50 concentration, 96 h
# Description: as §6
# c-Src = biological target: T2, c-Src (Homo sapiens, UniProt P12931); assay: Src filter-binding kinase assay (Src Assay Kit); type: biochemical; conditions: isolated Src; calculated from ID50, ATP-competitive; E0 0.005, S0 0.012 µM
# T2 construct: His tag; purchased Upstate (Lake Placid, NY, USA)
# T2 sequence (P12931 whole entry): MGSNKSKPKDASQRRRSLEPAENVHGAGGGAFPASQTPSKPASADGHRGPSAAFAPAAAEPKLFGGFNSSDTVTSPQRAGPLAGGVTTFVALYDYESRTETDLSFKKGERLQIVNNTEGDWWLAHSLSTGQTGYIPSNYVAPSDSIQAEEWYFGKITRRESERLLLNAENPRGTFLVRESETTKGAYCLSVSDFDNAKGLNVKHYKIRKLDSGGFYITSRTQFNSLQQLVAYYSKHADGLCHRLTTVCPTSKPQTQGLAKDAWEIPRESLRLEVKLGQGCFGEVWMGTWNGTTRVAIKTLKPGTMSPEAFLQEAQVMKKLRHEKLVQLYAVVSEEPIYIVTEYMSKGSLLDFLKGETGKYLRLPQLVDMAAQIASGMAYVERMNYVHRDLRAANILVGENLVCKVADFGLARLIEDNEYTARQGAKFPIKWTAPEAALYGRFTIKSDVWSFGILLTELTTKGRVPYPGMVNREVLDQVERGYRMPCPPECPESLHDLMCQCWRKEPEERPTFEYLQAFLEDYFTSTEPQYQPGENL
# Description: as §3, §4, §5
# HepG2 [13] = assay: Cell cycle analysis by flow cytometry; type: cell-based, human; conditions: IC50 concentration, 96 h
# Description: as §6
# BetaD5 [14] = assay: Cell cycle analysis by flow cytometry; type: cell-based, mouse; conditions: IC50 concentration, 96 h
# Description: as §6
# [15] = 24 h, read-out: Calculated IC50 after single treatment for 24 h
# [16] = 96 h, read-out: Calculated IC50 after daily treatment for 96 h
# [17] = Mus musculus, 24 h, read-out: Calculated IC50 after single treatment for 24 h
# [18] = Mus musculus, 96 h, read-out: Calculated IC50 after daily treatment for 96 h
# [19] = Homo sapiens, Caco-2, 24 h, read-out: Calculated IC50 after single treatment for 24 h
# [20] = Homo sapiens, Caco-2, 96 h, read-out: Calculated IC50 after daily treatment for 96 h
# [21] = Homo sapiens, 24 h, read-out: Calculated IC50 after single treatment for 24 h
# [22] = Homo sapiens, 96 h, read-out: Calculated IC50 after daily treatment for 96 h
# [23] = Homo sapiens, A549, 24 h, 24 h, read-out: Calculated IC50 after single treatment for 24 h
# [24] = Homo sapiens, A549, 96 h, 96 h, read-out: Calculated IC50 after daily treatment for 96 h
smiles,measurement,setting,value
BrC(Cn1ncc2c(N3CCOCC3)ncnc21)c1ccccc1 (stereo not drawn) [Si51],IC50,GammaD12 [1]; [15],> 100 µM
same,IC50,GammaD12 [1]; [16],> 20 µM
same,IC50,BetaD5 [2]; [15],> 100 µM
same,IC50,BetaD5 [2]; [16],> 20 µM
same,IC50,GammaA3 [3]; [15],> 100 µM
same,IC50,GammaA3 [3]; [16],> 20 µM
same,IC50,A2C12 [4]; [15],> 100 µM
same,IC50,A2C12 [4]; [16],> 20 µM
same,Ki,c-Abl,0.22 µM
same,IC50,CaCo2 [5]; [15],> 100 µM
same,IC50,CaCo2 [5]; [16],> 20 µM
same,IC50,HepG2 [6]; [15],> 100 µM
same,IC50,A549 [7]; [15],> 100 µM
same,IC50,A549 [7]; [16],> 20 µM
CSc1nc(NCCc2ccccc2)c2cnn(C=Cc3ccccc3)c2n1 [Si40],IC50,GammaD12 [1]; [15],26 ± 3 µM
same,IC50,GammaD12 [1]; [16],12.7 ± 0.4 µM
same,IC50,BetaD5 [2]; [15],43.6 ± 3.6 µM
same,IC50,BetaD5 [2]; [16],12.9 ± 2.9 µM
same,IC50,GammaA3 [3]; [15],> 100 µM
same,IC50,GammaA3 [3]; [16],> 20 µM
same,IC50,A2C12 [4]; [15],> 100 µM
same,IC50,A2C12 [4]; [16],7 ± 0.5 µM
same,Cells in G1 phase,CaCo2 [8],52.5%
same,Cells in G2 phase,CaCo2 [8],10.3%
same,Cells in S phase,CaCo2 [8],37.2%
same,Cells in G1 phase,A549 [9],81%
same,Cells in G2 phase,A549 [9],3.8%
same,Cells in S phase,A549 [9],15.2%
same,Cells in G1 phase,GammaD12 [10],28.4%
same,Cells in G2 phase,GammaD12 [10],2.7%
same,Cells in S phase,GammaD12 [10],68.9%
same,Cells in G1 phase,GammaA3 [11],53.4%
same,Cells in G2 phase,GammaA3 [11],15.4%
same,Cells in S phase,GammaA3 [11],31.3%
same,Cells in G1 phase,A2C12 [12],75.7%
same,Cells in G2 phase,A2C12 [12],9.8%
same,Cells in S phase,A2C12 [12],14.6%
same,Ki,c-Abl,0.45 µM
same,IC50,CaCo2 [5]; [15],> 100 µM
same,IC50,CaCo2 [5]; [16],0.4 ± 0.1 µM
same,IC50,HepG2 [6]; [15],> 100 µM
same,IC50,A549 [7]; [15],> 100 µM
same,IC50,A549 [7]; [16],16.2 ± 2.1 µM
Cc1nc(Nc2cccc(Cl)c2)c2cnn(CC(Cl)c3ccccc3)c2n1 (stereo not drawn) [Si167],Ki,c-Src,0.362 µM
same,IC50,GammaD12 [1]; [17],19.5 ± 0.8 µM
same,IC50,GammaD12 [1]; [18],9 ± 0.9 µM
same,IC50,BetaD5 [2]; [17],12.4 ± 1 µM
same,IC50,BetaD5 [2]; [18],9.3 ± 0.6 µM
same,IC50,GammaA3 [3]; [17],20.5 ± 1.2 µM
same,IC50,GammaA3 [3]; [18],16.8 ± 3.2 µM
same,IC50,A2C12 [4]; [17],16.4 ± 0.8 µM
same,IC50,A2C12 [4]; [18],10.6 ± 0.9 µM
same,Cells in G1 phase,CaCo2 [8],52.7%
same,Cells in G2 phase,CaCo2 [8],18%
same,Cells in S phase,CaCo2 [8],29.3%
same,Cells in G1 phase,HepG2 [13],57.8%
same,Cells in G2 phase,HepG2 [13],10.6%
same,Cells in S phase,HepG2 [13],31.6%
same,Cells in G1 phase,A549 [9],61.5%
same,Cells in G2 phase,A549 [9],6.7%
same,Cells in S phase,A549 [9],31.8%
same,Cells in G1 phase,GammaD12 [10],42%
same,Cells in G2 phase,GammaD12 [10],9.4%
same,Cells in S phase,GammaD12 [10],48.6%
same,Cells in G1 phase,BetaD5 [14],74.7%
same,Cells in G2 phase,BetaD5 [14],18.7%
same,Cells in S phase,BetaD5 [14],6.6%
same,Cells in G1 phase,GammaA3 [11],73.2%
same,Cells in G2 phase,GammaA3 [11],15.1%
same,Cells in S phase,GammaA3 [11],11.7%
same,Cells in G1 phase,A2C12 [12],55.7%
same,Cells in G2 phase,A2C12 [12],13.1%
same,Cells in S phase,A2C12 [12],31.2%
same,Ki,c-Abl,0.5 µM
same,IC50,CaCo2 [5]; [19],32.2 ± 1.7 µM
same,IC50,CaCo2 [5]; [20],5.7 ± 0.6 µM
same,IC50,HepG2 [6]; [21],32.2 ± 1.7 µM
same,IC50,HepG2 [6]; [22],11.4 ± 1.7 µM
same,IC50,A549 [7]; [23],19.8 ± 2.8 µM
same,IC50,A549 [7]; [24],5.7 ± 0.3 µM
Cc1nc(Nc2cccc(F)c2)c2cnn(CC(Cl)c3ccccc3)c2n1 (stereo not drawn) [Si166],Ki,c-Src,0.338 µM
same,IC50,GammaD12 [1]; [17],18.1 ± 1.4 µM
same,IC50,GammaD12 [1]; [18],15.9 ± 1.4 µM
same,IC50,BetaD5 [2]; [17],14 ± 2.1 µM
same,IC50,BetaD5 [2]; [18],10.6 ± 0.7 µM
same,IC50,GammaA3 [3]; [17],17 ± 2.3 µM
same,IC50,GammaA3 [3]; [18],19 ± 1.3 µM
same,IC50,A2C12 [4]; [17],16.6 ± 1.2 µM
same,IC50,A2C12 [4]; [18],11.5 ± 0.5 µM
same,Cells in G1 phase,CaCo2 [8],56.7%
same,Cells in G2 phase,CaCo2 [8],17.8%
same,Cells in S phase,CaCo2 [8],25.5%
same,Cells in G1 phase,HepG2 [13],54.6%
same,Cells in G2 phase,HepG2 [13],9.6%
same,Cells in S phase,HepG2 [13],35.8%
same,Cells in G1 phase,A549 [9],63.2%
same,Cells in G2 phase,A549 [9],6.6%
same,Cells in S phase,A549 [9],30.2%
same,Cells in G1 phase,GammaD12 [10],39.5%
same,Cells in G2 phase,GammaD12 [10],10.2%
same,Cells in S phase,GammaD12 [10],50.3%
same,Cells in G1 phase,BetaD5 [14],68.3%
same,Cells in G2 phase,BetaD5 [14],20.8%
same,Cells in S phase,BetaD5 [14],10.9%
same,Cells in G1 phase,GammaA3 [11],74.4%
same,Cells in G2 phase,GammaA3 [11],14.1%
same,Cells in S phase,GammaA3 [11],11.5%
same,Cells in G1 phase,A2C12 [12],56.1%
same,Cells in G2 phase,A2C12 [12],13.6%
same,Cells in S phase,A2C12 [12],30.4%
same,Ki,c-Abl,0.151 µM
same,IC50,CaCo2 [5]; [19],37.7 ± 2.4 µM
same,IC50,CaCo2 [5]; [20],6 ± 0.7 µM
same,IC50,HepG2 [6]; [21],37.7 ± 2.4 µM
same,IC50,HepG2 [6]; [22],10.8 ± 0.9 µM
same,IC50,A549 [7]; [23],20.2 ± 2.5 µM
same,IC50,A549 [7]; [24],8.3 ± 0.3 µM
